Experimental data reported in ChEMBL document CHEMBL4257490, “Development of a peptide-based bifunctional chelator conjugated to a cytotoxic drug for the treatment of melanotic melanoma” (Medchemcomm, 2018).
Residues, ends and D or L forms follow the SMILES beside them. *: point of attachment. X1 = O=c1nc(N*)ccn1[C@@H]1O[C@H](CO)[C@@H](O)C1(F)F

Tests used:
[1] = Ratio of drug level in tumor to blood of Balb/c mouse allografted with mouse B16F10 cells using 99mTc(CO)3-labeled compound at 10 to 12 MBq/kg, iv measured at 4 hrs; assay type: ADME, organism-based, Tumor/tissue
[2] = Drug uptake in urine of Balb/c mouse allografted with mouse B16F10 cells using 99mTc(CO)3-labeled compound at 10 to 12 MBq/kg, iv measured at 4 hrs; assay type: ADME, organism-based; conditions: in vivo
[3] = Drug uptake in mouse B16F10 cells using 99mTc(CO)3-labeled compound at 15 to 20 MBq/ml after 240 mins by gamma scintillation counting method; assay type: ADME, cell-based; conditions: b16-f10, 4 h
[4] = Drug uptake in heart of Balb/c mouse allografted with mouse B16F10 cells using 99mTc(CO)3-labeled compound at 10 to 12 MBq/kg, iv measured at 4 hrs; assay type: ADME, organism-based; conditions: in vivo
[5] = Drug uptake in spleen of Balb/c mouse allografted with mouse B16F10 cells using 99mTc(CO)3-labeled compound at 10 to 12 MBq/kg, iv measured at 2 hrs; assay type: ADME, organism-based; conditions: in vivo
B16-F10 [6] = assay: Ratio of drug uptake in mouse B16F10 cells at 20 ug/ml after 4 hrs by flow cytometric method to drug uptake in mouse B16F10 cells at 20 ug/ml after 30 mins by flow cytometric method; assay type: ADME, cell-based
[7] = Drug uptake in urinary bladder of Balb/c mouse allografted with mouse B16F10 cells using 99mTc(CO)3-labeled compound at 4 to 8 MBq, iv measured at 4 hrs by scintigraphic imaging method; assay type: ADME, organism-based; conditions: in vivo
[8] = Drug uptake in kidney of Balb/c mouse allografted with mouse B16F10 cells using 99mTc(CO)3-labeled compound at 10 to 12 MBq/kg, iv measured at 2 hrs; assay type: ADME, organism-based; conditions: in vivo
[9] = n-Octanol-phosphate buffer partition co-efficient, log P of 99mTc(CO)3-labeled compound at 2 to 3 KBq after 1 min by gamma scintillation counting method; assay type: physicochemical
[10] = Ratio of drug level in tumor to muscle of Balb/c mouse allografted with mouse B16F10 cells using 99mTc(CO)3-labeled compound at 10 to 12 MBq/kg, iv measured at 2 hrs; assay type: ADME, organism-based, Tumor/tissue; conditions: in vivo
[11] = Drug uptake in kidney of Balb/c mouse allografted with mouse B16F10 cells using 99mTc(CO)3-labeled compound at 10 to 12 MBq/kg, iv measured at 4 hrs; assay type: ADME, organism-based; conditions: in vivo
[12] = Drug uptake in blood of Balb/c mouse allografted with mouse B16F10 cells using 99mTc(CO)3-labeled compound at 10 to 12 MBq/kg, iv measured at 4 hrs; assay type: ADME, organism-based; conditions: in vivo
[13] = Drug uptake in liver of Balb/c mouse allografted with mouse B16F10 cells using 99mTc(CO)3-labeled compound at 10 to 12 MBq/kg, iv measured at 4 hrs; assay type: ADME, organism-based; conditions: in vivo
[14] = Drug uptake in spleen of Balb/c mouse allografted with mouse B16F10 cells using 99mTc(CO)3-labeled compound at 10 to 12 MBq/kg, iv measured at 4 hrs; assay type: ADME, organism-based; conditions: in vivo
[15] = Drug uptake in liver of Balb/c mouse allografted with mouse B16F10 cells using 99mTc(CO)3-labeled compound at 10 to 12 MBq/kg, iv measured at 2 hrs; assay type: ADME, organism-based; conditions: in vivo
[16] = Drug uptake in urine of Balb/c mouse allografted with mouse B16F10 cells using 99mTc(CO)3-labeled compound at 10 to 12 MBq/kg, iv measured at 2 hrs; assay type: ADME, organism-based; conditions: in vivo
[17] = Drug uptake in mouse B16F10 cells using 99mTc(CO)3-labeled compound at 15 to 20 MBq/ml after 30 mins by gamma scintillation counting method relative to total added activity; assay type: ADME, cell-based; conditions: b16-f10, 0.5 h
[18] = Drug uptake in intestine of Balb/c mouse allografted with mouse B16F10 cells using 99mTc(CO)3-labeled compound at 10 to 12 MBq/kg, iv measured at 4 hrs; assay type: ADME, organism-based; conditions: in vivo
[19] = Hemolytic activity in rat erythrocytes at 100 uM after 1 hr relative to control; assay type: ADME, cell-based, Erythrocyte; conditions: read-out: Activity
[20] = Drug uptake in tumor of Balb/c mouse allografted with mouse B16F10 cells using 99mTc(CO)3-labeled compound at 4 to 8 MBq, iv measured at 4 hrs by scintigraphic imaging method; assay type: ADME, organism-based, Neoplasm; conditions: in vivo
[21] = Drug uptake in intestine of Balb/c mouse allografted with mouse B16F10 cells using 99mTc(CO)3-labeled compound at 10 to 12 MBq/kg, iv measured at 2 hrs; assay type: ADME, organism-based; conditions: in vivo
[22] = Ratio of drug level in tumor to blood of Balb/c mouse allografted with mouse B16F10 cells using 99mTc(CO)3-labeled compound at 10 to 12 MBq/kg, iv measured at 2 hrs; assay type: ADME, organism-based, Tumor/tissue
[23] = Drug uptake in lung of Balb/c mouse allografted with mouse B16F10 cells using 99mTc(CO)3-labeled compound at 10 to 12 MBq/kg, iv measured at 2 hrs; assay type: ADME, organism-based; conditions: in vivo
[24] = Hemolytic activity in rat erythrocytes up to 50 uM after 1 hr relative to control; assay type: ADME, cell-based, Erythrocyte; conditions: read-out: Activity
[25] = Drug uptake in heart of Balb/c mouse allografted with mouse B16F10 cells using 99mTc(CO)3-labeled compound at 10 to 12 MBq/kg, iv measured at 2 hrs; assay type: ADME, organism-based; conditions: in vivo
[26] = Metabolic stability in rat serum assessed as parent compound remaining using 99mTc(CO)3-labeled compound after 24 hrs by TLC method; assay type: ADME, cell-free; conditions: read-out: Stability
[27] = Drug uptake in liver of Balb/c mouse allografted with mouse B16F10 cells using 99mTc(CO)3-labeled compound at 4 to 8 MBq, iv measured at 4 hrs by scintigraphic imaging method; assay type: ADME, organism-based; conditions: in vivo
[28] = Drug uptake in kidney of Balb/c mouse allografted with mouse B16F10 cells using 99mTc(CO)3-labeled compound at 4 to 8 MBq, iv measured at 4 hrs by scintigraphic imaging method; assay type: ADME, organism-based; conditions: in vivo
[29] = Drug uptake in blood of Balb/c mouse allografted with mouse B16F10 cells using 99mTc(CO)3-labeled compound at 10 to 12 MBq/kg, iv measured at 2 hrs; assay type: ADME, organism-based; conditions: in vivo
[30] = Drug uptake in mouse B16F10 cells using 5,6-carboxyfluorescein-labeled compound at 20 ug/ml after 4 hrs by DAPI staining-based fluorescence microscopic method; assay type: ADME, cell-based; conditions: b16-f10, 4 h
[31] = Ratio of drug level in tumor to muscle of Balb/c mouse allografted with mouse B16F10 cells using 99mTc(CO)3-labeled compound at 10 to 12 MBq/kg, iv measured at 4 hrs; assay type: ADME, organism-based, Tumor/tissue; conditions: in vivo
[32] = Drug uptake in stomach of Balb/c mouse allografted with mouse B16F10 cells using 99mTc(CO)3-labeled compound at 10 to 12 MBq/kg, iv measured at 2 hrs; assay type: ADME, organism-based; conditions: in vivo
[33] = Drug degradation in histidine solution using 99mTc(CO)3-labeled compound after 24 hrs by TLC method; assay type: physicochemical; conditions: read-out: Drug degradation
[34] = Drug uptake in stomach of Balb/c mouse allografted with mouse B16F10 cells using 99mTc(CO)3-labeled compound at 10 to 12 MBq/kg, iv measured at 4 hrs; assay type: ADME, organism-based; conditions: in vivo
[35] = Drug uptake in mouse B16F10 cells using 99mTc(CO)3-labeled compound at 15 to 20 MBq/ml after 30 mins by gamma scintillation counting method; assay type: ADME, cell-based; conditions: b16-f10, 0.5 h
[36] = Drug uptake in lung of Balb/c mouse allografted with mouse B16F10 cells using 99mTc(CO)3-labeled compound at 10 to 12 MBq/kg, iv measured at 4 hrs; assay type: ADME, organism-based; conditions: in vivo
[37] = Drug uptake in tumor muscle of Balb/c mouse allografted with mouse B16F10 cells using 99mTc(CO)3-labeled compound at 10 to 12 MBq/kg, iv measured at 2 hrs; assay type: ADME, organism-based; conditions: in vivo
[38] = Drug uptake in muscle of Balb/c mouse allografted with mouse B16F10 cells using 99mTc(CO)3-labeled compound at 10 to 12 MBq/kg, iv measured at 2 hrs; assay type: ADME, organism-based, Muscle tissue; conditions: in vivo
[39] = Drug uptake in tumor muscle of Balb/c mouse allografted with mouse B16F10 cells using 99mTc(CO)3-labeled compound at 10 to 12 MBq/kg, iv measured at 4 hrs; assay type: ADME, organism-based; conditions: in vivo
[40] = Drug uptake in muscle of Balb/c mouse allografted with mouse B16F10 cells using 99mTc(CO)3-labeled compound at 10 to 12 MBq/kg, iv measured at 4 hrs; assay type: ADME, organism-based, Muscle tissue; conditions: in vivo
[41] = Drug uptake in mouse B16F10 cells using 99mTc(CO)3-labeled compound at 15 to 20 MBq/ml after 240 mins by gamma scintillation counting method relative to total added activity; assay type: ADME, cell-based; conditions: b16-f10, 4 h
[42] = Stability in saline assessed as parent compond remaining using 99mTc(CO)3-labeled compound after 24 hrs by TLC method; assay type: physicochemical; conditions: read-out: Stability
B16-F10 [43] = assay: Cytotoxicity against mouse B16F10 cells assessed as decrease in cell viability after 72 hrs by MTT assay; assay type: functional, cell-based; conditions: B16-F10, 72 h
[44] = Drug uptake in gastrointestinal tract of Balb/c mouse allografted with mouse B16F10 cells using 99mTc(CO)3-labeled compound at 4 to 8 MBq, iv measured at 4 hrs by scintigraphic imaging method; assay type: ADME, organism-based; conditions: in vivo

- Kp at 4 h [1]: 0.94
- Drug uptake [2]: 56.11 %ID/ml
- Drug uptake [3]: 65%
- Drug uptake [4]: 0.05 % ID/g
- Drug uptake [5]: 0.44 % ID/g
- Ratio (B16-F10 [6]): 1.8
- Drug uptake [7]: Active
- Drug uptake [8]: 4.44 % ID/g
- logP at 1 min [9]: -1.77
- Ratio [10]: 4.66
- Drug uptake [11]: 3.24 % ID/g
- Drug uptake [12]: 0.88 %ID/ml
- Drug uptake [13]: 14.39 % ID/g
- Drug uptake [14]: 0.26 % ID/g
- Drug uptake [15]: 16.89 % ID/g
- Drug uptake [16]: 53.11 %ID/ml
- Drug uptake [17]: 2.9%
- Drug uptake [18]: 9.06 % ID/g
- Drug uptake [20]: Not Active
- Drug uptake [21]: 7.9 % ID/g
- Kp at 2 h [22]: 0.72
- Drug uptake [23]: 0.32 % ID/g
- Drug uptake [25]: 0.07 % ID/g
- remaining at 24 h [26]: ≥ 92%
- Drug uptake [27]: Active
- Drug uptake [28]: Active
- Drug uptake [29]: 1.13 %ID/ml
- Drug uptake [30]: Active
- Ratio [31]: 4.89
- Drug uptake [32]: 0.36 % ID/g
- degraded at 24 h [33]: 5%
- Drug uptake [34]: 0.26 % ID/g
- Drug uptake [35]: 30.45%
- Drug uptake [36]: 0.2 % ID/g
- Drug uptake [37]: 0.82 % ID/g
- Drug uptake [38]: 0.17 % ID/g
- Drug uptake [39]: 0.83 % ID/g
- Drug uptake [40]: 0.17 % ID/g
- Drug uptake [41]: 4.99%
- remaining at 24 h [42]: ≥ 92%
- Drug uptake [44]: Active
Compound: N=C(N)NCCC[C@H](NC(=O)[C@@H](N)Cc1cnc[nH]1)C(=O)NCC(=O)N[C@@H](CC(=O)Nc1ccn([C@@H]2O[C@H](CO)[C@@H](O)C2(F)F)c(=O)n1)C(N)=O (H-HRGD(X1)-NH2)
- hemolysis at 1 h, 100 µM [19]: 7 to 9%
- hemolysis at 1 h [24]: 5 to 6%
- IC50 (B16-F10 [43]): 210 nM
